The assay concerns PKB Ser473 phosphorylation in Rat1-myr-HA-p110 delta cells. The assay is described as follows: Reverse protein array, PKB Ser473 phosphorylation in Rat1-myr-HA-p110 delta cells. It counts as cell-based. The following applies: Rattus norvegicus, 0.5 h, 30 minutes compound incubation, read-out: p-PKB/IC50_delta.
On to `CNc1ncc(-c2ccc3ncc4c(c3c2)n(-c2ccc(N3CC(O)C3)nc2C)c(=O)n4C)cc1F` [Example 29.3, 8-(5-Fluoro-6-methylamino-pyridin-3-yl)-1-[6-(3-hydroxy-azetidin-1-yl)-2-methyl-pyridin-3-yl]-3-methyl-1,3-dihydro-imidazo[4,5-c]quinolin-2-one], for which the IC50 was 65.3 nM.

For `CNc1ncc(-c2ccc3ncc4c(c3c2)n(-c2ccc(N3CC(O)C3)nc2C)c(=O)n4C)cc1C(F)(F)F` [Example 29.4, 1-[6-(3-Hydroxy-azetidin-1-yl)-2-methyl-pyridin-3-yl]-3-methyl-8-(6-methylamino-5-trifluoromethyl-pyridin-3-yl)-1,3-dihydro-imidazo[4,5-c]quinolin-2-one], the IC50 came out at 18.3 nM.

Take `COc1cc(-c2ccc3ncc4c(c3c2)n(-c2ccc(N3CC(O)C3)nc2C)c(=O)n4C)cnc1CO` [Example 29.5, 1-[6-(3-Hydroxy-azetidin-1-yl)-2-methyl-pyridin-3-yl]-8-(6-hydroxymethyl-5-methoxy-pyridin-3-yl)-3-methyl-1,3-dihydro-imidazo[4,5-c]quinolin-2-one]: the IC50 is 401 nM.

For the compound `COc1ncc(-c2ccc3ncc4c(c3c2)n(-c2ccc(N3CC(O)C3)nc2C)c(=O)n4C)c(OC)n1` [Example 29.6, 8-(2,4-Dimethoxy-pyrimidin-5-yl)-1-[6-(3-hydroxy-azetidin-1-yl)-2-methyl-pyridin-3-yl]-3-methyl-1,3-dihydro-imidazo[4,5-c]quinolin-2-one], the IC50 turned out to be 119 nM.

Turning to `CNc1ncc(-c2ccc3ncc4c(c3c2)n(-c2ccc(C(C)(C)O)nc2C)c(=O)n4C)cc1F` [Example 31.1, 8-(5-Fluoro-6-methylamino-pyridin-3-yl)-1-[6-(1-hydroxy-1-methyl-ethyl)-2-methyl-pyridin-3-yl]-3-methyl-1,3-dihydro-imidazo[4,5-c]quinolin-2-one], the IC50 turned out to be 36 nM.

As for `CNc1ncc(-c2ccc3ncc4c(c3c2)n(-c2ccc(N3CC[C@H](O)C3)nc2C)c(=O)n4C)cn1` [Example 32.1, 1-[6-((S)-3-Hydroxy-pyrrolidin-1-yl)-2-methyl-pyridin-3-yl]-3-methyl-8-(2-methylamino-pyrimidin-5-yl)-1,3-dihydro-imidazo[4,5-c]quinolin-2-one], the IC50 came out at 17.7 nM.

As for `CNc1ncc(-c2ccc3ncc4c(c3c2)n(-c2ccc(N3CC[C@H](O)C3)nc2C)c(=O)n4C)cc1F` [Example 32.2, 8-(5-Fluoro-6-methylamino-pyridin-3-yl)-1-[6-((S)-3-hydroxy-pyrrolidin-1-yl)-2-methyl-pyridin-3-yl]-3-methyl-1,3-dihydro-imidazo[4,5-c]quinolin-2-one], the IC50 is 30.5 nM.

Regarding `COc1ncc(-c2ccc3ncc4c(c3c2)n(-c2ccc(N3CC[C@H](O)C3)nc2C)c(=O)n4C)c(OC)n1` [Example 32.3, 8-(2,4-Dimethoxy-pyrimidin-5-yl)-1-[6-((S)-3-hydroxy-pyrrolidin-1-yl)-2-methyl-pyridin-3-yl]-3-methyl-1,3-dihydro-imidazo[4,5-c]quinolin-2-one], the IC50 is 59 nM.

Consider `CNc1ncc(-c2ccc3ncc4c(c3c2)n(-c2ccc(N3CC[C@H](O)C3)nc2C)c(=O)n4C)cc1C(F)(F)F` [Example 32.5, 1-[6-((S)-3-Hydroxy-pyrrolidin-1-yl)-2-methyl-pyridin-3-yl]-3-methyl-8-(6-methylamino-5-trifluoromethyl-pyridin-3-yl)-1,3-dihydro-imidazo[4,5-c]quinolin-2-one], for which the IC50 is 16 nM.

For the compound `Cc1nc(N2CC[C@H](O)C2)ccc1-n1c(=O)n(C)c2cnc3ccc(-c4cncc(OC(C)C)c4)cc3c21` [Example 32.8, 1-[6-((S)-3-Hydroxy-pyrrolidin-1-yl)-2-methyl-pyridin-3-yl]-8-(5-isopropoxy-pyridin-3-yl)-3-methyl-1,3-dihydro-imidazo[4,5-c]quinolin-2-one], the IC50 is 95.3 nM.

The values above are taken from patent US20100311714A1, “1H-IMIDAZO[4,5-c]QUINOLINONE COMPOUNDS” (priority 2009, published 2010).
